Assay results taken from patent US9938261B2, “Heterocyclic compounds and methods of use thereof” (AMBIT BIOSCIENCES CORPORATION, priority 2011, dated 2018).

Assays:
[1] = target: kinase panel containing either 386 or 392 distinct kinases; test: Kinase selectivity score S10 from competition binding panel; conditions: 10 μM, panel of 386 or 392 distinct kinases
Method in brief: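 Compounds at 10 μM competed against immobilised affinity ligands for T7 phage-fused or HEK-293-expressed DNA-tagged kinases, 1 h at room temperature; bound kinase eluted and quantified by qPCR. S10 = fraction of distinct non-mutant kinases with percent of DMSO control below 10.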

[2] = target: T1, FLT3 (Homo sapiens, UniProt P36888); test: Competition binding assay, FLT3 Kd; conditions: competition binding
T1 construct: made in house
T1 sequence (P36888 27-993): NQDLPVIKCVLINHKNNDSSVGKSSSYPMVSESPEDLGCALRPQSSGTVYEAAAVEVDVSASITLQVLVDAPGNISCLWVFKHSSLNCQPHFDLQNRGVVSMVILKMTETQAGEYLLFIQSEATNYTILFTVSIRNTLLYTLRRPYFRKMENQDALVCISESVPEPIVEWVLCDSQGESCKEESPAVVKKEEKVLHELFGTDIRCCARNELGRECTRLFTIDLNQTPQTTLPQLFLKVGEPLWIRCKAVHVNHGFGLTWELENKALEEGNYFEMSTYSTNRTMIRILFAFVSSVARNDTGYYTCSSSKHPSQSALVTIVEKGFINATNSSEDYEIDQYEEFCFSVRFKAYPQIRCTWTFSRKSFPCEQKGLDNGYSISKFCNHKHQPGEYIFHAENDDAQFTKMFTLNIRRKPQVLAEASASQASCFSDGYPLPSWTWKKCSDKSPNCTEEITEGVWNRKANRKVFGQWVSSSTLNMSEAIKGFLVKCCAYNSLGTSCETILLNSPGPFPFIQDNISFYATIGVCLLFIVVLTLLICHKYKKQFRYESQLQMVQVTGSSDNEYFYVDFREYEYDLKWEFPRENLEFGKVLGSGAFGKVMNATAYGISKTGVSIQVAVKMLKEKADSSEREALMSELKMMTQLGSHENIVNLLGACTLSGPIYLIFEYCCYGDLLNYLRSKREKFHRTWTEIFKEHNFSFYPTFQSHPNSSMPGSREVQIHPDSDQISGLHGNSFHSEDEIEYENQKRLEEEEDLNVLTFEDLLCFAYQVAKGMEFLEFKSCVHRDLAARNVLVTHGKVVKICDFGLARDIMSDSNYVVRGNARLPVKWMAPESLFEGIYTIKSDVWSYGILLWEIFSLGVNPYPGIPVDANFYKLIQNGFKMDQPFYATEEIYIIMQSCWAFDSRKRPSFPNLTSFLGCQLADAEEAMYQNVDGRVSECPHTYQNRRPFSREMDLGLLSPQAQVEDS
Method in brief: (§1)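 Read-out is quantitative PCR of kinase recovered from affinity beads after competition with test compound. Binding reached equilibrium over 1 hour at room temperature; Kd values come from eleven-point threefold serial dilutions.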

[3] = target: T2, KIT (Homo sapiens, UniProt P10721); test: Competition binding assay, KIT Kd; conditions: competition binding
T2 construct: made in house
Method in brief: as §1

T2 sequence (P10721 26-976): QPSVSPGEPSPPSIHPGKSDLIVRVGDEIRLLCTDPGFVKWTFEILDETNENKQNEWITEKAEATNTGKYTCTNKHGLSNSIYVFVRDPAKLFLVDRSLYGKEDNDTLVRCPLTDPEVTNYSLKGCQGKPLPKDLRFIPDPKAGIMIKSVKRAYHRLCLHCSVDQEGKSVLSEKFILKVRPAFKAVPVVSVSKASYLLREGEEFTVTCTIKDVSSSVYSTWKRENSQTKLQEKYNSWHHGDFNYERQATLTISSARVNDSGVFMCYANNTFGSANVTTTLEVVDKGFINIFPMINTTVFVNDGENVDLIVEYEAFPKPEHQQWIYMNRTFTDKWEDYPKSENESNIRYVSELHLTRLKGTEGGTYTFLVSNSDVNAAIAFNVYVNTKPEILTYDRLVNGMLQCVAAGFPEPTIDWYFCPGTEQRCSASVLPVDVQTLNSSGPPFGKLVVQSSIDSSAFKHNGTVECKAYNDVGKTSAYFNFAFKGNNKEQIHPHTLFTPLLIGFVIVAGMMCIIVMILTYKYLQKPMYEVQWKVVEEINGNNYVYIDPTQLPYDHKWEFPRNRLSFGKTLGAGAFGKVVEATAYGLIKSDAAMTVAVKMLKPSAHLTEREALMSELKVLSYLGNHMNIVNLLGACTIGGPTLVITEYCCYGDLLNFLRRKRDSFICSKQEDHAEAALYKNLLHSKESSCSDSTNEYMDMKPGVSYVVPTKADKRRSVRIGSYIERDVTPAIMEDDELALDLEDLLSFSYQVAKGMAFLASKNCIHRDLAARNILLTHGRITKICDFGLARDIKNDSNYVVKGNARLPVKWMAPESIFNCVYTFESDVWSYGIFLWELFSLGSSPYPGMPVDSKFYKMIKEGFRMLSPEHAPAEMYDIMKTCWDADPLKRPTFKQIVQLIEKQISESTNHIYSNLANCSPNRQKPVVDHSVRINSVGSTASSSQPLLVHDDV

Structure (SMILES)	Kinase specificity S(10) [1]	Kd [2] [nM]	Kd [3] [nM]
CN1CCN(c2ccn3c(Cc4ccc5nc(N[C@@H]6CCCC[C@H]6O)sc5c4)cnc3c2)CC1 [Example 188, (1R,2R)-2-((6-((7-(4-methylpiperazin-1-yl)imidazo[1,2-a]pyridin-3-yl)methyl)benzo[d]thiazol-2-yl)amino)cyclohexanol]	A (A≤0.01)	1000 to 5000	> 2000
CN1CCN(c2ccc3ncc(Cc4ccc5nc(N[C@@H]6CCCC[C@H]6O)sc5c4)n3n2)CC1 [Example 178, (1R,2R)-2-((6-((6-(4-methylpiperazin-1-yl)imidazo[1,2-b]pyridazin-3-yl)methyl)benzo[d]thiazol-2-yl)amino)cyclohexanol]	B (0.01<B≤0.02)	200 to 1000	500 to 2000
O[C@@H]1CCCC[C@H]1Nc1nc2ccc(Cc3cnc4ccc(Br)nn34)cc2s1 [Example 177, (1R,2R)-2-((6-((6-bromoimidazo[1,2-b]pyridazin-3-yl)methyl)benzo[d]thiazol-2-yl)amino)cyclohexanol]	C (C>0.02)	≤ 200	≤ 100
O[C@@H]1CCCC[C@H]1Nc1nc2ccc(Cn3cnc4cc(OC5COC5)ccc43)cc2s1 [Example 182, (1R,2R)-2-((6-((5-(oxetan-3-yloxy)-1H-benzo[d]imidazol-1-yl)methyl)benzo[d]thiazol-2-yl)amino)cyclohexanol]	A (A≤0.01)	200 to 1000	100 to 500
N#Cc1cc2ncn(Cc3ccc4nc(N[C@@H]5CCCC[C@H]5O)oc4c3)c2cc1Cl [Example 195, 6-chloro-1-((2-(((1R,2R)-2-hydroxycyclohexyl)amino)benzo[d]oxazol-6-yl)methyl)-1H-benzo[d]imidazole-5-carbonitrile]	A (A≤0.01)	1000 to 5000	500 to 2000
Fc1cnc2c(c1)ncn2Cc1ccc2nc(Nc3ccccc3)sc2c1 [Example 191, 6-((6-fluoro-3H-imidazo[4,5-b]pyridin-3-yl)methyl)-N-phenylbenzo[d]thiazol-2-amine]	A (A≤0.01)	1000 to 5000	100 to 500
Cn1cc(-c2ccc3c(c2)ncn3Cc2ccc3nc(N[C@@H]4CCCC[C@H]4O)sc3c2)c(C(F)(F)F)n1 [Example 185, (1R,2R)-2-((6-((5-(1-methyl-3-(trifluoromethyl)-1H-pyrazol-4-yl)-1H-benzo[d]imidazol-1-yl)methyl)benzo[d]thiazol-2-yl)amino)cyclohexanol]	B (0.01<B≤0.02)	≤ 200	≤ 100
O[C@@H]1CCCC[C@H]1Nc1nc2ccc(Cc3cnc4cccc(F)n34)cc2s1 [Example 186, (1R,2R)-2-((6-((5-fluoroimidazo[1,2-a]pyridin-3-yl)methyl)benzo[d]thiazol-2-yl)amino)cyclohexanol]	B (0.01<B≤0.02)	≤ 200	100 to 500
O[C@@H]1CCCC[C@H]1Nc1nc2ccc(Cn3cnc4cc(C5=CCCCC5)ccc43)cc2s1 [Example 184, (1R,2R)-2-((6-((5-(cyclohex-1-en-1-yl)-1H-benzo[d]imidazol-1-yl)methyl)benzo[d]thiazol-2-yl)amino)cyclohexanol]	A (A≤0.01)	200 to 1000	≤ 100
O[C@@H]1CCCC[C@H]1Nc1nc2ccc(Cc3cnc4cc(N5CCOCC5)ccn34)cc2s1 [Example 187, (1R,2R)-2-((6-((7-morpholinoimidazo[1,2-a]pyridin-3-yl)methyl)benzo[d]thiazol-2-yl)amino)cyclohexanol]	A (A≤0.01)	> 5000	> 2000

Results, then the compound that gave them:

Kinase specificity S(10) [1]	Kd [2] [nM]	Kd [3] [nM]	Structure (SMILES)
A (A≤0.01)	1000 to 5000	100 to 500	OC[C@H]1CC[C@@H](Nc2nc3ccc(Cn4cnc5cc(F)cnc54)cc3s2)CC1 [Example 180, (cis-4-((6-((6-fluoro-3H-imidazo[4,5-b]pyridin-3-yl)methyl)benzo[d]thiazol-2-yl)amino)cyclohexyl)methanol]
B (0.01<B≤0.02)	200 to 1000	≤ 100	OC[C@H]1CCC[C@@H](Nc2nc3ccc(Cn4cnc5cc(F)cnc54)cc3s2)C1 [Example 194, ((1S,3R)-3-((6-((6-fluoro-3H-imidazo[4,5-b]pyridin-3-yl)methyl)benzo[d]thiazol-2-yl)amino)cyclohexyl)methanol]
B (0.01<B≤0.02)	200 to 1000	≤ 100	C=Cc1ccc2c(c1)ncn2Cc1ccc2nc(N[C@@H]3CCCC[C@H]3O)sc2c1 [Example 183, (1R,2R)-2-((6-((5-vinyl-1H-benzo[d]imidazol-1-yl)methyl)benzo[d]thiazol-2-yl)amino)cyclohexanol]
B (0.01<B≤0.02)	1000 to 5000	≤ 100	OC[C@H]1CC[C@H](Nc2nc3ccc(Cn4cnc5cc(F)cnc54)cc3s2)CC1 [Example 179, (trans-4-((6-((6-fluoro-3H-imidazo[4,5-b]pyridin-3-yl)methyl)benzo[d]thiazol-2-yl)amino)cyclohexyl)methanol]
A (A≤0.01)	200 to 1000	500 to 2000	O[C@@H]1CCCC[C@H]1Nc1nc2ccc(Cn3cnc4cnc(C(F)(F)F)nc43)cc2s1 [Example 105, (1R,2R)-2-((6-((2-(trifluoromethyl)-9H-purin-9-yl)methyl)benzo[d]thiazol-2-yl)amino)cyclohexanol]
B (0.01<B≤0.02)	1000 to 5000	100 to 500	CS[C@@H]1CCCC[C@H]1Nc1nc2ccc(Cn3cnc4cc(F)cnc43)cc2s1 [Example 181, 6-((6-fluoro-3H-imidazo[4,5-b]pyridin-3-yl)methyl)-N-((1R,2R)-2-(methylthio)cyclohexyl)benzo[d]thiazol-2-amine]
B (0.01<B≤0.02)	1000 to 5000	100 to 500	OC[C@@H]1CCC[C@@H](Nc2nc3ccc(Cn4cnc5cc(F)cnc54)cc3s2)C1 [Example 192, ((1R,3R)-3-((6-((6-fluoro-3H-imidazo[4,5-b]pyridin-3-yl)methyl)benzo[d]thiazol-2-yl)amino)cyclohexyl)methanol]
A (A≤0.01)	200 to 1000	500 to 2000	Cc1cc(C)c2c(c1)ncn2Cc1ccc2nc(N[C@@H]3CCCC[C@H]3O)sc2c1 [Example 189]
A (A≤0.01)	1000 to 5000	≤ 100	O[C@@H]1[C@H](O)CCC[C@H]1Nc1nc2ccc(Cn3cnc4cc(F)cnc43)cc2s1 [Example 193, (1R,2S,3R)-3-((6-((6-fluoro-3H-imidazo[4,5-b]pyridin-3-yl)methyl)benzo[d]thiazol-2-yl)amino)cyclohexane-1,2-diol]
A (A≤0.01)	200 to 1000	500 to 2000	Cc1cc(Br)cc2ncn(Cc3ccc4nc(N[C@@H]5CCCC[C@H]5O)sc4c3)c12 [Example 190, (1R,2R)-2-((6-((5-bromo-7-methyl-1H-benzo[d]imidazol-1-yl)methyl)benzo[d]thiazol-2-yl)amino)cyclohexanol]
A (A≤0.01)	≤ 200	≤ 100	CC(C)(O)C#Cc1cnc2c(c1)ncn2Cc1ccc2nc(N[C@@H]3CCCC[C@H]3O)sc2c1 [Example 104, (1R,2R)-2-((6-((6-(3-hydroxy-3-methylbut-1-yn-1-yl)-3H-imidazo[4,5-b]pyridin-3-yl)methyl)benzo[d]thiazol-2-yl)amino)cyclohexanol]
